Measured values taken from patent publication US20040127492A1 (Pharmacia Corporation, priority 2002, published 2004).
Counter-ions that a name gives are not always drawn. Like-named read-outs stand apart in the source and are kept apart here.

Molecular target: MAPKAPK2 (MK-2) (Homo sapiens, UniProt P49137)
Experiment: Determination of MK-2 IC50 (HSP-peptide phosphorylation, anion exchange resin capture assay)
Type: biochemical
Description: Determination of MK-2 IC50:
Recombinant MAPKAPK2 was phosphorylated at a concentration of 42-78 μM by incubation with 0.23 μM of active p38α in 50 mM HEPES, 0.1 mM EDTA, 10 mM magnesium acetate, and 0.25 mM ATP, pH 7.5 for one hour at 30° C.
The phosphorylation of HSP-peptide ([…]) by MAPKAPK2 was measured using an anion exchange resin capture assay method. The reaction was carried out in 50 mM β-glycerolphosphate, 0.04% BSA, 10 mM magnesium acetate, 2% DMSO and 0.8 mM dithiotheritol, pH 7.5 in the presence of the HSP-peptide with 0.2 μCi [γ^33P]ATP and 0.03 mM ATP. The reaction was initiated by the addition of 15 nM MAPKAPK2 and was allowed to incubate at 30° C. for 30 min. The reaction was terminated and [γ^33P]ATP was removed from solution by the addition of 150 μl of AG 1×8 ion exchange resin in 900 mM sodium formate pH 3.0. A 50 μl aliquot of head volume was removed from the quenched reaction mixture and added to a 96-well plate, 150 μl of Microscint-40 (Packard) was added and the amount of phosphorylated-peptide was determined. Allow the Microscint to sit in the plates for 60 minutes prior to counting.
Compounds are evaluated as potential inhibitors of the MK-2 kinase by measuring their effects on MK-2 phosphorylation of the peptide substrate. Compounds may be screened initially at two concentrations prior to determination of IC50 values. Screening results are expressed as percent inhibition at the concentrations of compound tested. For IC50 value determinations, Compounds are tested at six concentrations in ten-fold serial dilutions with each concentration tested in triplicate. Results are expressed as IC50 values in micromolar. The assay is performed at a final concentration of 2% DMSO.

[1] = Table 1, phenoxypyrazole MK-2 inhibitors, read-out: MK-2 Avg, IC50
[2] = Table 4, pyrimidylpyrazole MK-2 inhibitors, read-out: MK-2 Avg. IC50
[3] = Table 2, pyrazolylpyrazole MK-2 inhibitors, read-out: MK-2 Avg. IC50

MAPKAPK2 (MK-2), sequence (P49137 whole entry, species assumed): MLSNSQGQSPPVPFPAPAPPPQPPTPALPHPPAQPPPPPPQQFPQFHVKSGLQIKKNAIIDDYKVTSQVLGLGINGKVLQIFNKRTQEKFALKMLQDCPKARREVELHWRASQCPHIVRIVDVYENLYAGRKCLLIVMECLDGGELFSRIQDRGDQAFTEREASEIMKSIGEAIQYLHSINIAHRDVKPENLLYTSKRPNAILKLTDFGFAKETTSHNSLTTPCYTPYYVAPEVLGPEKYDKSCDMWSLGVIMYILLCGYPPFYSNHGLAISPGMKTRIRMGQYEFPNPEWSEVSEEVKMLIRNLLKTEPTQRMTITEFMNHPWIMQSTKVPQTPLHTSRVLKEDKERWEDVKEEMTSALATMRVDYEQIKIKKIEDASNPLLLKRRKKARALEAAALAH

SMILES	IC50 (read-out: MK-2 Avg. IC50)	also measured
COc1cc2c(cc1Cc1ccccc1)-c1nn(CCCNC(=O)OC(C)(C)C)c(C(=O)O)c1CC2 [Example 63]	–	IC50 [1]: 154 µM
COC(=O)c1c2c(nn1CCCN)-c1nc(-c3ccncc3)ncc1CC2 [Example 12]	–	IC50 [2]: 142 µM
O=C(CO)NCCn1nc2c(c1C(=O)O)CCc1cnccc1-2 [Example 181]	17.4 µM	–
CC(C)(C)OC(=O)NC1CCN(CCCn2nc3c(c2C(=O)O)CCc2cnccc2-3)CC1 [Example 269]	149 µM	–
Cc1nccc2c1CCc1c-2nn2c1C(=O)NCCC2 [Example 186]	20 µM	–
O=C(O)c1c2c(nn1CCCNC(c1ccccc1)(c1ccccc1)c1ccccc1)-c1nc(-c3ccccc3)ncc1CC2 [Example 10]	–	IC50 [2]: 52.2 µM
COc1ccc(-c2ncc3c(n2)-c2nn4c(c2CC3)C(=O)NCCC4)cc1 [Example 8]	–	IC50 [2]: 4.52 µM
c1ccc2ncc(-c3cc4c(cn3)CCc3c[nH]nc3-4)cc2c1 [Example 212]	52 µM	–
O=C(O)c1[nH]nc2c1CCc1[nH]nc(SCc3ccccc3)c1-2 [Example 60]	–	IC50 [3]: ≥ 200 µM
CC1CCCN(c2cc3c(cn2)CCc2c-3nn3c2C(=O)NCC3)C1 (centres unmarked) [Example 236]	84.4 µM	–
O=C(O)c1c2c(nn1CC(O)CNC1Cc3ccccc3C1)-c1ccncc1CC2 (centres unmarked) [Example 172]	14 µM	–
c1cc2c(cn1)CCc1c[nH]nc1-2 [Example 238]	86.1 µM	–
O=C1NCCn2nc3c(c21)CCc1cnc(CCC2CCCCC2)cc1-3 [Example 259]	121 µM	–
CCCCCCc1cc2c(cn1)CCc1c-2nn2c1C(=O)NCC2 [Example 264]	133 µM	–
CC(C)(C)OC(=O)NCCCn1nc2c(c1C(=O)O)CCc1cnc(Cl)cc1-2 [Example 254]	112 µM	–
O=C1CCCn2nc3c(c21)CCc1cnccc1-3 [Example 219]	59.5 µM	–
N#CCCCn1nc2c(c1C(=O)O)CCc1cnccc1-2 [Example 183]	17.9 µM	–
COc1cccc(S(=O)(=O)NCCCn2nc3c(c2C(=O)O)CCc2cnccc2-3)c1 [Example 267]	141 µM	–
NCCCn1nc2c(c1CO)CCc1cnccc1-2 [Example 277]	186 µM	–
O=C1NCCn2nc3c(c21)CCc1cnc(Cc2ccc(Cl)cc2)cc1-3 [Example 243]	94.2 µM	–
N#Cc1cccc(NC(=O)NCCCn2nc3c(c2C(=O)O)CCc2cnccc2-3)c1 [Example 184]	17.9 µM	–
NCCCn1nc(C(N)=O)c2c1-c1cn[nH]c1CC2 [Example 28]	–	IC50 [3]: 104 µM
O=C1NCCn2nc3c(c21)CCc1cnc(N2CCCC2)cc1-3 [Example 189]	21.6 µM	–
NC(=O)C1Cn2nc3c(c2C(=O)N1)CCc1cnc(-c2cnc4ccccc4c2)cc1-3 (centres unmarked) [Example 195]	27.9 µM	–

SMILES	IC50 (read-out: MK-2 Avg. IC50)	also measured
O=C(O)c1c2c(nn1CC(O)CN1CCCC1)-c1ccncc1CC2 (centres unmarked) [Example 272, hydrochloride]	162 µM	–
C=CCNC(=O)NCCCn1nc2c(c1C(=O)O)CCc1cnccc1-2 [Example 217]	55.3 µM	–
NCCCn1nc2c(c1C(=O)O)CCc1c-2ccnc1Cl [Example 179]	16.5 µM	–
FC(F)c1[nH]nc2c1CCc1cnccc1-2 [Example 244]	96.5 µM	–
NC(CCn1nc2c(c1C(=O)O)CCc1cnccc1-2)C(=O)O (centres unmarked) [Example 191]	25 µM	–
CN1CCn2nc3c(c2C1=O)CCc1cnccc1-3 [Example 270]	156 µM	–
NCCCn1nc2c(c1C(=O)O)CCc1c-2cc(-c2cccc([N+](=O)[O-])c2)c(O)c1Cl [Example 43]	–	IC50 [1]: 74.3 µM
O=C(O)c1c2c(nn1CCCBr)-c1ccncc1CC2 [Example 188]	21.5 µM	–
O=C(O)c1c2c(nn1CC(O)CNCCc1cccs1)-c1ccncc1CC2 (centres unmarked) [Example 273]	163 µM	–
O=C1NCCn2nc3c(c21)CCc1cnc(-c2ccc(Oc4ccccc4)cc2)cc1-3 [Example 257]	119 µM	–
CC(C)(C)CCc1cc2c(cn1)CCc1c-2nn2c1C(=O)NCC2 [Example 202]	35.6 µM	–
NCCCn1nc2c(c1C(=O)O)CCc1c-2ccnc1-c1ccccc1 [Example 239]	87.6 µM	–
O=C(O)c1c2c(nn1CCCNCC(F)(F)F)-c1ccncc1CC2 [Example 218]	56.3 µM	–
O=C(CCc1ccco1)NCCCn1nc2c(c1C(=O)O)CCc1cnccc1-2 [Example 256]	116 µM	–
COC(=O)c1[nH]nc2c1CCc1cc(O)c(S(=O)(=O)N(C)C)cc1-2 [Example 47]	–	IC50 [1]: 92.8 µM
O=C1NCCCn2nc3c(c21)CCc1cnc(-c2ccccc2)nc1-3 [Example 11]	–	IC50 [2]: 81.4 µM
CSc1[nH]nc2c1CCc1cnccc1-2 [Example 237]	85.2 µM	–
COC(=O)c1[nH]nc2c1CCc1cnccc1-2 [Example 275]	171 µM	–
Cc1ccc(C(C)CCN(CCCn2nc3c(c2C(=O)O)CCc2cnccc2-3)CCC(C)c2ccc(C)o2)o1 (centres unmarked) [Example 241]	87.9 µM	–
Cn1nc2c(c1C(=O)O)CCc1cnccc1-2 [Example 231]	76.6 µM	–
O=C1NCCn2nc3c(c21)CCc1cnc(/C=C/c2ccccc2)cc1-3 [Example 2]	–	IC50 (Table 5, other cyclic pyrazole MK-2 inhibiting compounds, read-out: MK-2 Avg. IC50): 0.147 µM
CS(=O)(=O)NCCCn1nc2c(c1C(=O)O)CCc1cnccc1-2 [Example 196]	28.2 µM	–
NCCCn1nc2c(c1C(=O)O)CCc1cc(O)c(Cc3ccccc3)cc1-2 [Example 29]	–	IC50 [1]: 29.6 µM
NC(=O)Cn1nc(C(N)=O)c2c1-c1cn[nH]c1CC2 [Example 57]	–	IC50 [3]: ≥ 200 µM

SMILES	IC50 (read-out: MK-2 Avg. IC50)	also measured
O=C1c2c3c(nn2CCN1CCCc1ccccc1)-c1ccncc1CC3 [Example 251]	102 µM	–
NCCCn1nc2c(c1CCl)CCc1cnccc1-2 [Example 201]	33.5 µM	–
COC(=O)c1c2c(nn1CCCNC(=O)OC(C)(C)C)-c1cc(-c3cccc(Cl)c3)c(OC)cc1CC2 [Example 131]	–	IC50 [1]: > 200 µM
O=C(O)c1c2c(nn1CCCNCCN1CCCC1)-c1ccncc1CC2 [Example 174]	14.6 µM	–
C=CCn1nc2c(c1C(N)=O)CCc1cnc(-c3cnc4ccccc4c3)cc1-2 [Example 258]	119 µM	–
COc1ccc(CC(=O)NCCCn2nc3c(c2C(=O)O)CCc2cnccc2-3)cc1 [Example 198]	30.1 µM	–
O=C1NCCCn2nc3c(c21)CCc1cnc(-c2ccc4c(c2)OCO4)nc1-3 [Example 7]	–	IC50 [2]: 3.14 µM
O=C(O)c1c2c(nn1CC=NO)-c1ccncc1CC2 [Example 235]	84.3 µM	–
COC(=O)c1[nH]nc2c1C(C)Cc1cc(OC)ccc1-2 (centres unmarked) [Example 100]	–	IC50 [1]: > 200 µM
CCC(CC)CNCCn1nc2c(c1C(=O)O)CCc1cnccc1-2 [Example 221]	62.1 µM	–
O=C(O)c1c2c(nn1CCCNCc1cccc(Cl)c1)-c1ccncc1CC2 [Example 161]	10.3 µM	–
CCC(CC)CNCCCCn1nc2c(c1C(=O)O)CCc1cnccc1-2 [Example 197]	29.4 µM	–
O=C(NCCCn1nc2c(c1C(=O)O)CCc1cnccc1-2)c1ccco1 [Example 279]	190 µM	–
NC1CCN(CC(O)Cn2nc3c(c2C(=O)O)CCc2cnccc2-3)CC1 (centres unmarked) [Example 266]	136 µM	–
CCCn1nc2c(c1C(=O)O)CCc1cnc(-c3cnc4ccccc4c3)cc1-2 [Example 20]	0.0914 µM	–
CC(C)NCCCn1nc2c(c1C(=O)O)CCc1cnccc1-2 [Example 190]	21.9 µM	–
O=C(O)c1c2c(nn1CCCNCc1cnc[nH]1)-c1ccncc1CC2 [Example 160]	10.1 µM	–
O=C(O)c1c2c(nn1CCCNc1ccncc1)-c1ccncc1CC2 [Example 249]	101 µM	–
NCC1Cn2nc3c(c2C(=O)O1)CCc1cnccc1-3 (centres unmarked) [Example 185]	19.4 µM	–
CCCn1nc2c(c1C(N)=O)CCc1cnc(-c3cnc4ccccc4c3)cc1-2 [Example 252]	103 µM	–
CCOC(=O)NC(=O)NCCCn1nc2c(c1C(=O)O)CCc1cnccc1-2 [Example 209]	42.5 µM	–
O=C1NC(C(O)CO)Cn2nc3c(c21)CCc1cnccc1-3 (centres unmarked) [Example 167]	11.8 µM	–
CSc1n[nH]c2c1-c1n[nH]c(C(N)=O)c1CC2 [Example 18]	–	IC50 [3]: 30.3 µM
